Earlier results, collected in paper PMC9329312, “Decoding kinase-adverse event associations for small molecule kinase inhibitors” (Nature Communications, 2022).

Settings: ref FAERS

CCOc1cc2ncc(C#N)c(Nc3ccc(OCc4ccccn4)c(Cl)c3)c2cc1NC(=O)/C=C/CN(C)C [neratinib]
0.225%: Joint swelling, % of Cases | Liver injury, % of Cases | Mastectomy, % of Cases | Nail discolouration, % of Cases | Oral mucosal blistering, % of Cases | Pancreatitis acute, % of Cases | Platelet count decreased, % of Cases | Pleural effusion, % of Cases | Productive cough, % of Cases
7.8%: Product dose omission issue, % of Cases
0.45%: Lethargy, % of Cases | Liver function test increased, % of Cases | Malignant neoplasm progression, % of Cases | Memory impairment, % of Cases | Nasal congestion, % of Cases | Neoplasm progression, % of Cases | Paraesthesia, % of Cases
0.075%: Intracranial artery dissection, % of Cases | Ischaemic stroke, % of Cases | Joint injury, % of Cases | Kidney infection, % of Cases | Klebsiella infection, % of Cases | Large intestinal haemorrhage, % of Cases | Large intestinal obstruction, % of Cases | Localised infection, % of Cases | Lower limb fracture, % of Cases | Lower respiratory tract infection, % of Cases | Lung cancer metastatic, % of Cases | Lymph node haemorrhage, % of Cases | Lymphocyte count decreased, % of Cases | Magnetic resonance imaging abnormal, % of Cases | Magnetic resonance imaging head abnormal, % of Cases | Malignant ascites, % of Cases | Malignant neoplasm of unknown primary site, % of Cases | Malignant pleural effusion, % of Cases | Medical procedure, % of Cases | Menopausal symptoms, % of Cases | Menstruation delayed, % of Cases | Mental impairment, % of Cases | Mesenteric artery stenosis, % of Cases | Metastases to abdominal cavity, % of Cases | Metastases to lymph nodes, % of Cases | Metastases to meninges, % of Cases | Metastases to peritoneum, % of Cases | Metastases to spine, % of Cases | Microcytic anaemia, % of Cases | Micturition urgency, % of Cases | Middle ear effusion, % of Cases | Monocyte count increased, % of Cases | Monoplegia, % of Cases | Mood swings, % of Cases | Mouth haemorrhage, % of Cases | Mouth swelling, % of Cases | Movement disorder, % of Cases | Myelosuppression, % of Cases | Myocardial infarction, % of Cases | Myopia, % of Cases | Nail growth abnormal, % of Cases | Nasal ulcer, % of Cases | Neoplasm malignant, % of Cases | Nervousness, % of Cases | Neuralgia, % of Cases | Neutrophil count increased, % of Cases | Nightmare, % of Cases | Oedema peripheral, % of Cases | Oesophageal pain, % of Cases | Onychalgia, % of Cases | Onychomycosis, % of Cases | Oral herpes, % of Cases | Orthostatic hypotension, % of Cases | Osteonecrosis of jaw, % of Cases | Oxygen saturation decreased, % of Cases | Oxygen saturation increased, % of Cases | PIK3CA-activated mutation, % of Cases | Pancreatic carcinoma, % of Cases | Pancreatic mass, % of Cases | Panic attack, % of Cases | Papilloedema, % of Cases | Papule, % of Cases | Paraesthesia oral, % of Cases | Paranasal sinus hypersecretion, % of Cases | Paranasal sinus hyposecretion, % of Cases | Pericardial effusion, % of Cases | Periorbital swelling, % of Cases | Pharyngitis, % of Cases | Photopsia, % of Cases | Photosensitivity reaction, % of Cases | Physical deconditioning, % of Cases | Physical disability, % of Cases | Platelet count increased, % of Cases | Pneumonitis, % of Cases | Poor quality sleep, % of Cases | Post procedural bile leak, % of Cases | Post procedural infection, % of Cases | Post procedural swelling, % of Cases | Prescribed overdose, % of Cases | Presyncope, % of Cases | Procedural pain, % of Cases | Proctalgia, % of Cases | Product administered to patient of inappropriate age, % of Cases | Product dose omission in error, % of Cases | Product identification number issue, % of Cases | Product name confusion, % of Cases | Product packaging quantity issue, % of Cases | Product prescribing error, % of Cases | Prosthesis implantation, % of Cases | Pulmonary embolism, % of Cases | Pulmonary hypertension, % of Cases | Pulmonary pain, % of Cases
1.4%: Nasopharyngitis, % of Cases | Pain, % of Cases
0.5%: Pancreatitis, % of Cases
4.2%: Muscle spasms, % of Cases
29.7%: Nausea, % of Cases
0.375%: Lung neoplasm malignant, % of Cases | Metastases to bone, % of Cases | Migraine, % of Cases | Muscular weakness, % of Cases | Nail disorder, % of Cases | Neutropenia, % of Cases | Pollakiuria, % of Cases
1.2%: Pruritus, % of Cases
0.3%: Lip swelling, % of Cases | Loss of consciousness, % of Cases | Metastases to liver, % of Cases | Metastases to lung, % of Cases | Musculoskeletal stiffness, % of Cases | Nasal dryness, % of Cases | Oral discomfort, % of Cases | Oral pain, % of Cases | Palmar-plantar erythrodysaesthesia syndrome, % of Cases
1.5%: Malaise, % of Cases
0.8%: Onychoclasis, % of Cases
11.6%: Off label use, % of Cases
1.3%: Prescribed underdose, % of Cases
1.6%: Metastases to central nervous system, % of Cases
0.15%: Intra-abdominal fluid collection, % of Cases | Irritability, % of Cases | Joint stiffness, % of Cases | Labelled drug-drug interaction medication error, % of Cases | Laboratory test abnormal, % of Cases | Ligament sprain, % of Cases | Liver disorder, % of Cases | Lung disorder, % of Cases | Lymphoedema, % of Cases | Malnutrition, % of Cases | Mass, % of Cases | Metastatic neoplasm, % of Cases | Mouth ulceration, % of Cases | Muscle twitching, % of Cases | Musculoskeletal chest pain, % of Cases | Neck pain, % of Cases | Negative thoughts, % of Cases | Nephrolithiasis, % of Cases | Nervous system disorder, % of Cases | Night sweats, % of Cases | Ocular hyperaemia, % of Cases | Onycholysis, % of Cases | Osteoarthritis, % of Cases | Palpitations, % of Cases | Paronychia, % of Cases | Postoperative wound infection, % of Cases | Product physical issue, % of Cases | Product use in unapproved indication, % of Cases | Product use issue, % of Cases | Pulmonary oedema, % of Cases
0.9%: Myalgia, % of Cases | Pain in extremity, % of Cases | Product administration error, % of Cases
0.75%: Peripheral swelling, % of Cases
1.1%: Neuropathy peripheral, % of Cases | Oropharyngeal pain, % of Cases | Pneumonia, % of Cases
